Assay results as given in US20210387964A1, “HETEROARYLAMINOQUINOLINES AND ANALOGUES” (Bayer Aktiengesellschaft, priority 2018, published 2021).
Where two headings read alike, the source gives them in different places.

Assay: log P by HPLC on reversed-phase column (C 18), EEC Directive 79/831 Annex V.A8
Type: physicochemical
Experimental: In table 1, the log P values were determined in accordance with EEC Directive 79/831 Annex V.A8 by HPLC (High Performance Liquid Chromatography) on a reversed-phase column (C 18), using the method described below: […] If more than one Log P value is available within the same method, all the values are given and separated by “;”.

Compound | logP | further results
3-bromo-2-(1-methyl-1H-pyrazol-5-yl)pyridine [IXa.01] |  | logP (HPLC, reversed-phase C 18, 40° C., 0.1% aqueous formic acid and acetonitrile, gradient 10% to 95% acetonitrile): 1.53
Cc1nc2ccccc2nc1Nc1cccnc1-c1ccnn1C [I.01] | 1.88 | 
Cn1nccc1-c1ncccc1Nc1cnc2c(F)cccc2c1 [I.02] | 1.72 | 
Cc1c(Nc2ccsc2-c2ccnn2C)cnc2ccccc12 [I.03] | 1.39 | 
Cc1nc2ccccc2nc1Nc1ccsc1-c1ccnn1C [I.04] | 2.47 | 
Cn1nccc1-c1sccc1Nc1cnc2c(F)cccc2c1 [I.05] | 2.49 | 
CCn1nccc1-c1sccc1Nc1cnc2ccccc2c1C [I.06] | 1.60 | 
CCn1nccc1-c1sccc1Nc1nc2ccccc2nc1C [I.07] | 2.80 | 
Cn1nccc1-c1ncccc1Nc1cnc2ccccc2c1Cl [I.08] | 2.02 | 
Cn1nccc1-c1ncccc1Nc1cnc2c(F)c(F)ccc2c1 [I.09] | 1.93 | 
Cn1nccc1-c1ncccc1Nc1cnc2c(F)c(F)ccc2n1 [I.10] | 2.13 | 
CCn1nccc1-c1sccc1Nc1cnc2c(F)cccc2c1 [I.11] | 2.75 | 
Cn1nccc1-c1sccc1Nc1cnc2ccccc2c1Cl [I.12] | 2.66 | 
Cn1nccc1-c1sccc1Nc1cnc2c(F)c(F)ccc2c1 [I.13, 7,8-difluoro-N-[2-(1-methyl-1H-pyrazol-5-yl)-3-thienyl]quinolin-3-amine] |  | chromatographic logP: 2.71
Cn1nccc1-c1sccc1Nc1cnc2c(F)c(F)ccc2n1 [I.14] | 2.94 | 
Cc1nc2c(F)c(F)ccc2cc1Cc1cccnc1-c1ccnn1C [I.15] | 2.17 | 
Cc1nc2c(F)c(F)ccc2cc1Nc1cccnc1-c1ccnn1C [I.16] | 2.04 | 
Cc1nc2c(F)c(F)ccc2nc1Nc1cccnc1-c1ccnn1C [I.17] | 2.23 | 
Cc1nc2c(F)c(F)ccc2cc1Cc1cccnc1-c1ccsc1 [I.18] | 2.05 | 
Cc1nc2c(F)c(F)ccc2nc1Nc1cncnc1-c1ccnn1C [I.19] | 2.00 | 
CCn1nccc1-c1sccc1Nc1cnc2ccccc2c1Cl [I.20] | 2.98 | 
Cc1nc2c(F)c(F)ccc2cc1Nc1ccsc1-c1ccnn1C [I.21] | 2.74 | 

Compound | logP | further results
CCn1nccc1-c1sccc1Nc1cnc2c(F)c(F)ccc2c1 [I.22] | 2.92 | 
CCn1nccc1-c1sccc1Nc1cnc2c(F)c(F)ccc2n1 [I.23] | 3.29 | 
Cc1nc2c(F)c(F)ccc2nc1Nc1ccsc1-c1ccnn1C [I.24] | 2.90 | 
CCn1nccc1-c1sccc1Nc1cc2ccc(F)c(F)c2nc1C [I.25] | 3.11 | 
CCn1nccc1-c1sccc1Nc1nc2ccc(F)c(F)c2nc1C [I.26] | 3.27 | 
CCCn1nccc1-c1cnccc1Nc1nc2ccc(F)c(F)c2nc1C [I.27] | 2.33 | 
CCn1nccc1-c1c(F)cncc1Nc1cc2ccc(F)c(F)c2nc1C [I.28] | 2.60 | 
Cc1nc2c(F)c(F)ccc2cc1Nc1ccnc(Cl)c1-c1ccnn1C [I.29, N-[2-chloro-3-(1-methyl-1H-pyrazol-5-yl)pyridin-4-yl]-7,8-difluoro-2-methylquinolin-3-amine] |  | chromatographic logP: 2.27
CCn1nccc1-c1c(Nc2nc3ccc(F)c(F)c3nc2C)cncc1OC [I.30] | 2.28 | 
CCCn1nccc1-c1c(F)cncc1Nc1cc2ccc(F)c(F)c2nc1C [I.31] | 2.86 | 
CCn1nccc1-c1c(Cl)cncc1Nc1nc2ccc(F)c(F)c2nc1C [I.32] | 3.06 | 
CCCn1nccc1-c1c(Nc2nc3ccc(F)c(F)c3nc2C)cncc1OC [I.33] | 2.64 | 
CCCn1nccc1-c1c(Nc2cc3ccc(F)c(F)c3nc2C)ccnc1Cl [I.34] | 2.82 | 
CCCn1nccc1-c1c(Cl)cncc1Nc1nc2ccc(F)c(F)c2nc1C [I.35, N-[5-chloro-4-(1-propyl-1H-pyrazol-5-yl)pyridin-3-yl]-5,6-difluoro-3-methylquinoxalin-2-amine] |  | chromatographic logP: 3.44
Cn1nccc1-c1cscc1Cc1cnc2c(F)cccc2c1 [I.36] | 2.49 | 
Fc1cccc2cc(Cc3cscc3-c3ccsc3)cnc12 [I.37] | 3.77 | 
Cc1nc2c(F)c(F)ccc2cc1Cc1cscc1-c1ccnn1C [I.38, 7,8-difluoro-2-methyl-3-{[4-(1-methyl-1H-pyrazol-5-yl)-3-thienyl]methyl}quinoline] |  | chromatographic logP: 3.01
Cc1nc2c(F)c(F)ccc2cc1Cc1cscc1-c1ccsc1 [I.39] | 4.47 | 
CCCn1nccc1-c1c(C)cncc1Nc1cc2ccc(F)c(F)c2nc1C [I.40] | 2.11 | 
CCn1nccc1-c1c(F)cncc1Nc1cc2ccc(F)c(OC)c2nc1C [I.41] | 2.22 | 
CCn1nccc1-c1c(Nc2cc3ccc(F)c(F)c3nc2C)cncc1OC [I.42] | 2.06 | 
CCn1nccc1-c1c(Cl)cncc1Nc1cc2ccc(F)c(F)c2nc1C [I.43] | 2.86 | 

Compound | logP | further results
CCCn1nccc1-c1c(F)cncc1Nc1cc2ccc(F)c(OC)c2nc1C [I.44] | 2.51 | 
CCCn1nccc1-c1c(Nc2cc3ccc(F)c(F)c3nc2C)cncc1OC [I.45] | 2.30 | 
CCCn1nccc1-c1c(Cl)cncc1Nc1cc2ccc(F)c(F)c2nc1C [I.46] | 3.20 | 
CCOCn1nccc1-c1ccsc1Cc1cnc2c(F)cccc2c1 [I.47] | 3.10 | 
CCOCn1nccc1-c1ccsc1Cc1cc2ccc(F)c(F)c2nc1C [I.48] | 3.64 | 
Cc1nc2c(F)c(F)ccc2cc1Cc1cccnc1Br [IIa.01] | 2.92 | 
CS(=O)(=O)N(c1cnc2c(F)cccc2c1)c1cccnc1Cl [IIa.02] | 2.07 | 
Cc1nc2c(F)c(F)ccc2nc1Nc1cnccc1Cl [IIc.01] | 2.41 | 
Cc1nc2c(F)c(F)ccc2cc1Nc1cncc(F)c1I [IIc.02] | 2.94 | 
Fc1cccc2cc(Cc3cscc3Br)cnc12 [IIf.01] | 3.36 | 
Cc1nc2c(F)c(F)ccc2cc1Cc1cscc1Br [IIf.02, 3-[(4-bromo-3-thienyl)methyl]-7,8-difluoro-2-methylquinoline] |  | chromatographic logP: 4
Fc1cccc2cc(Cc3sccc3Br)cnc12 [IIg.01] | 3.50 | 
Cc1nc2c(F)c(F)ccc2cc1Cc1sccc1Br [IIg.02] | 4.19 | 
CCn1nccc1-c1ccncc1Cl [IXc.01, 3-chloro-4-(1-ethyl-1H-pyrazol-5-yl)pyridine] |  | chromatographic logP: 1.73
Cn1nccc1-c1sccc1Br [IXe.01, 5-(3-bromo-2-thienyl)-1-methyl-1H-pyrazole] |  | chromatographic logP: 2.29
CCn1nccc1-c1sccc1Br [IXe.02, 5-(3-bromo-2-thienyl)-1-ethyl-1H-pyrazole] |  | chromatographic logP: 2.72
CCCn1nccc1-c1ccncc1N [XIc.01, 4-(1-propyl-1H-pyrazol-5-yl)pyridin-3-amine] |  | chromatographic logP: 0.11
CCn1nccc1-c1c(N)cncc1OC [XIc.02, 4-(1-ethyl-1H-pyrazol-5-yl)-5-methoxypyridin-3-amine] |  | chromatographic logP: 0.08
CCn1nccc1-c1c(N)cncc1Cl [XIc.03, 5-chloro-4-(1-ethyl-1H-pyrazol-5-yl)pyridin-3-amine] |  | chromatographic logP: 1.3
CCCn1nccc1-c1c(N)cncc1OC [XIc.04, 5-methoxy-4-(1-propyl-1H-pyrazol-5-yl)pyridin-3-amine] |  | chromatographic logP: 0.45
CCCn1nccc1-c1c(N)cncc1Cl [XIc.05, 5-chloro-4-(1-propyl-1H-pyrazol-5-yl)pyridin-3-amine] |  | chromatographic logP: 1.64
